Measured values as given in US20080161232A1, “C5a Receptor Antagonist” (JERINI AG, priority 2005, published 2008).
Starred links: 1 amine or outer side, 2 acyl side, 3 side chain; linkers in the order of their positions; H or OH if unused. Positions of bridges follow the written chain, without caps; N, C: chain ends. Non-standard residues stand in square brackets, D forms with d. Residues, ends and D or L forms follow the SMILES beside them. *: point of attachment. Propanoyl(3,3-Ph2) = O=C(CC(c1ccccc1)c1ccccc1)*; Phe(4-tBu) = CC(C)(C)c1ccc(C[C@H](N)C(=O)O)cc1; Dip = N[C@H](C(=O)O)C(c1ccccc1)c1ccccc1; NMe2Phe = CN(C)[C@@H](Cc1ccccc1)C(=O)*; 1Nal = N[C@@H](Cc1cccc2ccccc12)C(=O)O; 2Nal = N[C@@H](Cc1ccc2ccccc2c1)C(=O)O; Bta = N[C@@H](Cc1csc2ccccc12)C(=O)O; NMeF = CN[C@@H](Cc1ccccc1)C(=O)O; 2Thi = N[C@@H](Cc1cccs1)C(=O)O; Cha = N[C@@H](CC1CCCCC1)C(=O)O; dCha = N[C@H](CC1CCCCC1)C(=O)O; NHPhenethyl = c1ccc(CCN*)cc1; X23 = O=C(CC(O)c1ccccc1)*; Nle = CCCC[C@H](N)C(=O)O; Orn = NCCC[C@H](N)C(=O)O; Aze = O=C(O)[C@@H]1CCN1; CO = O=C([*:1])[*:2]; NHBu = CCCCN*

Target: T1, human C5aR(CD88) (Homo sapiens, UniProt P21730)
T1 construct: expressed in transfected cells; host or cells: rat basophilic leukemia cells (RBL)
T1 sequence (P21730 1-350): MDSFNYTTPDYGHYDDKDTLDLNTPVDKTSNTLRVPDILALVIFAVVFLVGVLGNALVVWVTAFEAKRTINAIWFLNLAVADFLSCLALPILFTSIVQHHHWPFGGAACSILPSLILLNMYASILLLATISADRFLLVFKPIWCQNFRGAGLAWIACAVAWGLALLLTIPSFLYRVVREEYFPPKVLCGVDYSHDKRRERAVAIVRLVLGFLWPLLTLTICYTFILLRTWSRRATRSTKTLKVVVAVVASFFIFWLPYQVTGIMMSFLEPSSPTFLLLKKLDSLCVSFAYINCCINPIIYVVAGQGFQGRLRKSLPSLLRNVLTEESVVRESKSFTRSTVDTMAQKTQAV
Assay: Determination of the IC50 value in an enzyme release assay (functional assay, antagonistic activity)
Type: cell-based
Settings: antagonistic activity; IC50 group in enzyme release assay, RBL cells expressing human C5aR(CD88); read-out: activity (group)

First: CC(=O)N[C@@H](Cc1ccccc1)C(=O)N[C@H]1CCCNC(=O)[C@H](C)NC(=O)[C@H](Cc2c[nH]c3ccccc23)NC(=O)[C@@H](CC2CCCCC2)NC(=O)[C@@H]2CCCN2C1=O [Compound 39] (Ac-F[Orn]P[dCha]WA; lactam 2-C)
Second: CC(=O)N[C@@H](Cc1ccccc1)C(=O)N[C@H]1CCCNC(=O)[C@H](Cc2cccc3ccccc23)NC(=O)[C@H](Cc2c[nH]c3ccccc23)NC(=O)[C@@H](CC2CCCCC2)NC(=O)[C@@H]2CCCN2C1=O [Compound 58, Ac-Phe-[Orn-Pro-cha-Trp-1Ni]] (Ac-F[Orn]P[dCha]W[1Nal]; lactam 2-C)
The IC50 of the first is higher: over 2000 nM for the first, 20 to 50 nM for the second. The second is the more potent here.

Compared with `CC(=O)N[C@@H](Cc1ccccc1)C(=O)N[C@@H](CCCN)C(=O)N1CCC[C@H]1C(=O)N[C@H](CC1CCCCC1)C(=O)N[C@@H](Cc1c[nH]c2ccccc12)C(=O)N[C@@H](Cc1ccccc1)C(N)=O` [Compound 51, Ac-Phe-Orn-Pro-cha-Trp-Phe-NH2] (Ac-F[Orn]P[dCha]WF-NH2), `CN[C@@H](Cc1ccccc1)C(=O)N[C@@H](CCCN)C(=O)N1CCC[C@H]1C(=O)N[C@H](CC1CCCCC1)C(=O)N[C@@H](Cc1c[nH]c2ccccc12)C(=O)N[C@@H](Cc1ccccc1)C(N)=O` [Compound 75, H—Me-Phe-Orn-Pro-cha-Trp-Phe-NH2] (H-[NMeF][Orn]P[dCha]WF-NH2) is higher in IC50: 20 to 50 nM for the first, 50 to 200 nM for the second. The first is the more potent here.

`CC(=O)N[C@@H](Cc1ccccc1)C(=O)N[C@@H](CCCN)C(=O)N1CC[C@H]1C(=O)N[C@H](CC1CCCCC1)C(=O)N[C@@H](Cc1csc2ccccc12)C(=O)N[C@@H](Cc1ccccc1)C(N)=O` [Compound 52, Ac-Phe-Orn-Aze-cha-Bta-Phe-NH2] (Ac-F[Orn][Aze][dCha][Bta]F-NH2) and `CC(=O)N[C@@H](Cc1cccs1)C(=O)N[C@@H](CCCN)C(=O)N1CC[C@H]1C(=O)N[C@H](CC1CCCCC1)C(=O)N[C@@H](Cc1csc2ccccc12)C(=O)N[C@@H](Cc1ccccc1)C(N)=O` [Compound 66, Ac-Thi-Orn-Aze-cha-Bta-Phe-NH2] (Ac-[2Thi][Orn][Aze][dCha][Bta]F-NH2) fall in the same range of IC50: 10 to 20 nM for the first, 10 to 20 nM for the second.

`CCCC[C@@H]1NC(=O)[C@H](Cc2c[nH]c3ccccc23)NC(=O)[C@@H](CC2CCCCC2)NC(=O)[C@@H]2CCCN2C(=O)[C@@H](NCc2ccccc2)CCCNC1=O` [Compound 56, Ph-CH2-[Orn-Pro-cha-Trp-Nle]] and `CCCC[C@@H]1NC(=O)[C@H](Cc2c[nH]c3ccccc23)NC(=O)[C@@H](CC2CCCCC2)NC(=O)[C@@H]2CCCN2C(=O)[C@@H](NC(=O)CC(O)c2ccccc2)CCCNC1=O` (stereo partly drawn) [Compound 59, Ph-CH(OH)—CH2—CO-[Orn-Pro-cha-Trp-Nle]] (X23-[Orn]P[dCha]W[Nle]; lactam 1-C) fall in the same range of IC50: 20 to 50 nM for the first, 20 to 50 nM for the second.

First: O=C1NCCC[C@H](NCc2ccccc2)C(=O)N2CCC[C@H]2C(=O)N[C@H](CC2CCCCC2)C(=O)N[C@@H](Cc2c[nH]c3ccccc23)C(=O)N[C@H]1Cc1ccccc1 [Compound 57, Ph-CH2-[Orn-Pro-cha-Trp-Phe]]
Second: NCCC[C@H](NC(=O)[C@@H](N)Cc1ccccc1)C(=O)N1CCC[C@H]1C(=O)N[C@H](CC1CCCCC1)C(=O)N[C@@H](Cc1c[nH]c2ccccc12)C(=O)N[C@@H](Cc1ccccc1)C(N)=O [Compound 74, H-Phe-Orn-Pro-cha-Trp-Phe-NH2] (H-F[Orn]P[dCha]WF-NH2)
The IC50 of the first is lower: 20 to 50 nM for the first, 50 to 200 nM for the second.

First: CC(=O)N[C@@H](Cc1ccccc1)C(=O)N[C@@H](CCCN)C(=O)N1CCC[C@H]1C(=O)N[C@H](CC1CCCCC1)C(=O)N[C@@H](Cc1c[nH]c2ccccc12)C(=O)N[C@@H](Cc1ccc2ccccc2c1)C(N)=O [Compound 64, Ac-Phe-Orn-Pro-cha-Trp-2Ni—NH2] (Ac-F[Orn]P[dCha]W[2Nal]-NH2)
Second: CC(=O)N[C@@H](Cc1ccccc1)C(=O)N[C@@H](CCCN)C(=O)N1CCC[C@H]1C(=O)N[C@H](CC1CCCCC1)C(=O)N[C@@H](Cc1c[nH]c2ccccc12)C(=O)N[C@@H](Cc1ccc(C(C)(C)C)cc1)C(N)=O [Compound 68, Ac-Phe-Orn-Pro-cha-Trp-Eap-NH2] (Ac-F[Orn]P[dCha]W[Phe(4-tBu)]-NH2)
The IC50 of the first is lower: 20 to 50 nM for the first, 200 to 2000 nM for the second.

`CC(=O)N[C@@H](Cc1ccccc1)C(=O)N[C@@H](CCCN)C(=O)N1CCC[C@H]1C(=O)N[C@H](CC1CCCCC1)C(=O)N[C@@H](Cc1c[nH]c2ccccc12)C(=O)N[C@@H](CC1CCCCC1)C(N)=O` [Compound 65, Ac-Phe-Orn-Pro-cha-Trp-Cha-NH2] (Ac-F[Orn]P[dCha]W[Cha]-NH2) and `CC(=O)N[C@@H](Cc1cccs1)C(=O)N[C@@H](CCCN)C(=O)N1CCC[C@H]1C(=O)N[C@H](CC1CCCCC1)C(=O)N[C@@H](Cc1c[nH]c2ccccc12)C(=O)N[C@@H](Cc1ccccc1)C(N)=O` [Compound 77, Ac-Thi-Orn-Pro-cha-Trp-Phe-NH2] (Ac-[2Thi][Orn]P[dCha]WF-NH2) fall in the same range of IC50: 50 to 200 nM for the first, 50 to 200 nM for the second.

Compared with `CN(C)[C@@H](Cc1ccccc1)C(=O)N[C@@H](CCCN)C(=O)N1CCC[C@H]1C(=O)N[C@H](CC1CCCCC1)C(=O)N[C@@H](Cc1c[nH]c2ccccc12)C(=O)N[C@@H](Cc1ccccc1)C(N)=O` [Compound 69, Me2-Phe-Orn-Pro-cha-Trp-Phe-NH2] (NMe2Phe-[Orn]P[dCha]WF-NH2), `CC(=O)N[C@@H](Cc1ccccc1)C(=O)N[C@@H](CCCN)C(=O)N1CCC[C@H]1C(=O)N[C@H](CC1CCCCC1)C(=O)N[C@@H](Cc1c[nH]c2ccccc12)C(=O)NCCc1ccccc1` [Compound 72, Ac-Phe-Orn-Pro-cha-Trp-NH—CH2—CH2-Ph] (Ac-F[Orn]P[dCha]W-NHPhenethyl) is higher in IC50: 50 to 200 nM for the first, 200 to 2000 nM for the second.

First: NCCC[C@H](NC(=O)CC(c1ccccc1)c1ccccc1)C(=O)N1CCC[C@H]1C(=O)N[C@H](CC1CCCCC1)C(=O)N[C@@H](Cc1c[nH]c2ccccc12)C(=O)N[C@@H](Cc1ccccc1)C(N)=O [Compound 70, Ph2-CH—CH2—CO-Orn-Pro-cha-Trp-Phe-NH2] ({Propanoyl(3,3-Ph2)}-[Orn]P[dCha]WF-NH2)
Second: CC(=O)N[C@H](C(=O)N[C@@H](CCCN)C(=O)N1CCC[C@H]1C(=O)N[C@H](CC1CCCCC1)C(=O)N[C@@H](Cc1c[nH]c2ccccc12)C(=O)N[C@@H](Cc1ccccc1)C(N)=O)C(c1ccccc1)c1ccccc1 [Compound 78, Ac-Ebw-Orn-Pro-cha-Trp-Phe-NH2] (Ac-[Dip][Orn]P[dCha]WF-NH2)
The IC50 of the first is higher: 200 to 2000 nM for the first, 50 to 200 nM for the second.

`CC(=O)N[C@@H](Cc1ccccc1)C(=O)N[C@@H](CCCN)C(=O)N1CC[C@H]1C(=O)N[C@H](CC1CCCCC1)C(=O)N[C@@H](Cc1csc2ccccc12)C(=O)NCCc1ccccc1` [Compound 73, Ac-Phe-Orn-Aze-cha-Bta-NH—CH2—CH2-Ph] (Ac-F[Orn][Aze][dCha][Bta]-NHPhenethyl) and `CCCCNC(=O)N[C@@H](Cc1ccccc1)C(=O)N[C@@H](CCCN)C(=O)N1CCC[C@H]1C(=O)N[C@H](CC1CCCCC1)C(=O)N[C@@H](Cc1c[nH]c2ccccc12)C(=O)N[C@@H](Cc1ccccc1)C(N)=O` [Compound 76, Bu-NH—CO-Phe-Orn-Pro-cha-Trp-Phe-NH2] ({NHBu-CO}-F[Orn]P[dCha]WF-NH2) fall in the same range of IC50: 200 to 2000 nM for the first, 200 to 2000 nM for the second.

With `CC(=O)N[C@@H](Cc1ccccc1)C(=O)N[C@@H](CCCN)C(=O)N[C@@H](C)C(=O)N[C@H](CC1CCCCC1)C(=O)N[C@@H](Cc1c[nH]c2ccccc12)C(=O)N[C@@H](Cc1ccccc1)C(N)=O` [Compound 79, Ac-Phe-Orn-Ala-cha-Trp-Phe-NH2] (Ac-F[Orn]A[dCha]WF-NH2) the IC50 was 50 to 200 nM.
